Data set [1] deals with NCI-H2122 (KRAS^G12C) NSCLC xenograft. In words: Anti-tumor efficacy in NCI-H2122 NSCLC xenograft tumor model. It counts as in vivo, nude mice. The method, then:
Anti-VEGFA 620.4.1.1 (Mu anti-VEGFA 620.4.1.1; hereafter referred to as anti-VEGF) was a solution in Histidine Buffer ([…], 0.02% Tween 20™, pH5.5). […] The anti-gD isotype control (Hu anti-gD 5B6; hereafter referred to as Isotype Control) was a solution in saline. […] The mice were housed in standard rodent micro-isolator cages and were acclimated to study conditions at least 3 days before tumor cell implantation. Only animals that appeared to be healthy and that were free of obvious abnormalities were used for the study. Human non-small lung carcinoma NCI-H2122 cells were obtained from the American Type Culture Collection (Rockville, MD) and harbor a G12C oncogenic mutation in K-RAS. […] Mice were distributed into four groups based on tumor volumes with n=10 mice per group. […] The isotope control and anti-VEGF antibodies were administered intravenously (IV) at 10 mg/kg for the first dose, and then dosed intraperitoneally (IP) at 5 mg/kg for subsequent doses on a twice weekly (BIW) schedule. Tumor sizes and mouse body weights were recorded twice weekly over the course of the study. […] Fred V. Fowler Co.; Newton, MA) and analyzed using Excel, version 14.2.5 (Microsoft Corporation; Redmond WA). […] A generalized additive mixed model (GAMM) was employed to analyze transformed tumor volumes over time as this approach addresses both repeated measurements from the same study subjects and modest dropouts before study end (Lin et al. Wiley Online Library; 1999; 61:381-400 and Liang Biometrical Journal. Wiley Online Library; 2005; 47:358-68). […] Estimates of efficacy were obtained by calculating the percent difference between the daily average baseline-corrected AUC of the relevant group fits on the original (i.e., untransformed) scale over a common time period.

Data set [2] has as its system KRAS^G12C-positive cancer cell lines. As to the kind of experiment: Growth inhibition of KRAS^G12C-positive versus KRAS^G12C-negative cancer cell lines. It counts as cell-based.
Data set [3] is described as follows: Risks associated with administration of study drugs. In kind it is in vivo. Conditions: Compound 1. The text has this: Risks Associated with Compound 1.
Risks Associated with Bevacizumab.

The conditions of data set [4]: bevacizumab; cited from earlier work.
[5] abbreviates: number of mice of n=10, same dosing, 21 days.

Consider two compounds from patent US12016862B2, “Methods and compositions comprising a KRasG12C inhibitor and a VEGF inhibitor for treating solid tumors” (Genentech, Inc., priority 2020, dated 2024).

“And” between values parts separate entries of the source, which are not always exact repeats. Identical values can stand only once. Like-named read-outs stand apart in the source and are kept apart here.

In the case of `C=CC(=O)N1CCN(c2nc(OC[C@@H]3CCCN3C)nc3c(F)c(-c4nc(N)cc(C)c4C(F)(F)F)c(Cl)cc23)[C@@H](C)C1` (atropisomer, axis not shown) [Compound 1], the “% TGI (estimated)” value in data set [1] (NCI-H2122 xenografts in nude mice, n=10, Compound 1 50 mg/kg PO QD, anti-VEGF 10 mg/kg IV first dose then 5 mg/kg IP BIW, 21 days, based on AUC, relative to vehicle controls) is reported as 98%. Further, the “mice showing reductions in initial tumor size” value in data set [1] (initial tumor response, n=10 per group) is 50%. Moreover, the “TI (tumor incidence)” value in data set [1] (n=10 per group, same dosing, 21 days) is 10/10. For the same compound, in data set [1] (setting [5]), the “CR (complete responses, 100% decrease in tumor volume)” value was 0; the “PR (partial responses, >50% decrease from the initial tumor volume)” value was 2/10 and 2. In data set [1] (single agent treatment), the “anti-tumor effect in words” value is given as “tumor stasis”. The “mice showing increases in tumor volume” value in data set [1] (within the first week of treatment, of 10 mice) is 5/10. Moreover, the “selectivity in growth inhibition for KRAS^G12C-positive over KRAS^G12C-negative cancer cell lines” value in data set [2] is given as “over 20,000 fold”. Besides, in data set [3], the “risks associated with administration” value is “diarrhea, nausea, vomiting, oral mucosal irritation, minimal to mild transaminase elevation, and phototoxicity”.

With “Bevacizumab: recombinant humanized anti-VEGF monoclonal antibody generated according to Presta et al.”, the “risks associated with administration” value in data set [4] is “gastrointestinal perforations, surgery and wound healing complications, hemorrhage”.
